Active and inactive are the calls of the source. The calls are words filed in the database; no cut-off is given here. Bounds are passed on as bounds.

One may read the logP as a log measure of how a compound divides between an organic and an aqueous phase.

Data set [1] deals with HeLa. In words: Cytotoxicity against human HeLa cells assessed as cell survival in dark at 100 nM after 24 hrs by WST8 assay. Format: functional, cell-based. In general terms: Tetrazolium dyes change colour on reduction, which living cells bring about.
In data set [2] the test system is HeLa. In words: Phototoxicity against human HeLa cells irradiated with 16Jcm'-2 from halogen lamp assessed as cell survival at 100 nM after 24 hrs by WST8 assay. In kind it is functional, cell-based. Particulars: light or radiation study.
The test system of data set [3] is HeLa. Kind of data set: Drug uptake in human HeLa cells at 80 nM after 24 hrs relative to TPPS. Format: ADME, cell-based. The conditions noted are these: 0.08 µM.
Data set [4] in a line: Lipophilicity, log P of the compound. Format: physicochemical. The conditions noted are these: octanol/water.
Data set [5] relates to HeLa. In words: Phototoxicity in human HeLa cells assessed as induction of cell shrinkage at 500 nM after 3 hrs using DAPI staining by confocal laser scanning microscopy. Format: functional, cell-based.
For data set [6], the system named is HeLa. In words: Phototoxicity in human HeLa cells assessed as induction of apoptotic bodies at 500 nM after 3 hrs using DAPI staining by confocal laser scanning microscopy. In kind it is functional, cell-based.

On to `OC[C@H]1O[C@@H](Sc2c(F)c(F)c(-c3c4nc(c(-c5c(F)c(F)c(S[C@@H]6O[C@H](CO)[C@@H](O)[C@H](O)[C@H]6O)c(F)c5F)c5ccc([nH]5)c(-c5c(F)c(F)c(S[C@@H]6O[C@H](CO)[C@@H](O)[C@H](O)[C@H]6O)c(F)c5F)c5nc(c(-c6c(F)c(F)c(F)c(F)c6F)c6ccc3[nH]6)C=C5)C=C4)c(F)c2F)[C@H](O)[C@@H](O)[C@@H]1O`, for which the Activity result with HeLa [1] is “Not toxic”; in the data set with HeLa [3], “Active”. The % survival with HeLa [2] came out at 80%. The lipophilicity (logP) in data set [4] amounted to 2.99.
In the same order, the values of `OC[C@H]1O[C@@H](Sc2c(F)c(F)c(-c3c4nc(c(-c5c(F)c(F)c(S[C@@H]6O[C@H](CO)[C@@H](O)[C@H](O)[C@H]6O)c(F)c5F)c5ccc([nH]5)c(-c5c(F)c(F)c(F)c(F)c5F)c5nc(c(-c6c(F)c(F)c(F)c(F)c6F)c6ccc3[nH]6)C=C5)C=C4)c(F)c2F)[C@H](O)[C@@H](O)[C@@H]1O` are “Not toxic”, “Active”, 90% and 3.98.
For `OC[C@H]1O[C@@H](Sc2c(F)c(F)c(-c3c4nc(c(-c5c(F)c(F)c(S[C@@H]6O[C@H](CO)[C@@H](O)[C@H](O)[C@H]6O)c(F)c5F)c5ccc([nH]5)c(-c5c(F)c(F)c(S[C@@H]6O[C@H](CO)[C@@H](O)[C@H](O)[C@H]6O)c(F)c5F)c5nc(c(-c6c(F)c(F)c(S[C@@H]7O[C@H](CO)[C@@H](O)[C@H](O)[C@H]7O)c(F)c6F)c6ccc3[nH]6)C=C5)C=C4)c(F)c2F)[C@H](O)[C@@H](O)[C@@H]1O`, the Activity entry was “Not toxic” with HeLa [1] and “Active” in the data set with HeLa [3]. In addition, the % survival with HeLa [2] came to 90%. Moreover, the logP in data set [4] came out at 0.75.
The like results for `OC[C@H]1O[C@@H](Sc2c(F)c(F)c(-c3c4nc(c(-c5c(F)c(F)c(F)c(F)c5F)c5ccc([nH]5)c(-c5c(F)c(F)c(F)c(F)c5F)c5nc(c(-c6c(F)c(F)c(F)c(F)c6F)c6ccc3[nH]6)C=C5)C=C4)c(F)c2F)[C@H](O)[C@@H](O)[C@@H]1O` were, in that order, “Not toxic”, “Active”, 90% and 5.11.
Consider `OC[C@H]1O[C@@H](Sc2c(F)c(F)c(-c3c4nc(c(-c5c(F)c(F)c(F)c(F)c5F)c5ccc([nH]5)c(-c5c(F)c(F)c(S[C@@H]6O[C@H](CO)[C@@H](O)[C@H](O)[C@H]6O)c(F)c5F)c5nc(c(-c6c(F)c(F)c(F)c(F)c6F)c6ccc3[nH]6)C=C5)C=C4)c(F)c2F)[C@H](O)[C@@H](O)[C@@H]1O`, for which the Activity entry with HeLa [1] was “Not toxic”; in the data set on HeLa [3] it was “Active”. For the same compound, in the data set with HeLa [2], the % survival was under 5%. For the same compound, the result with HeLa [5] and in the data set on HeLa [6] was Active. Besides, the logP in data set [4] was 3.53.

For the origin of these results see ChEMBL document CHEMBL1156898, “Synthesis, photophysical properties and photocytotoxicity of mono-, di-, tri- and tetra-glucosylated fluorophenylporphyrins” (Bioorg Med Chem, 2010).
